Target: T1, human GPR84 receptor (Homo sapiens, UniProt Q9NQS5)
T1 construct: frozen aliquots prepared by acCELLerate; host or cells: CHO-K1
Test: cAMP HTRF assay for identification of cellular GPR84 antagonists
Assay type: cell-based
Conditions: CHO-K1 cells stably expressing human GPR84; Forskolin + agonist 6-OAU (EC80); average or median values
How it was run: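 Forskolin-stimulated CHO-K1 cells stably expressing human GPR84, agonist-suppressed cAMP measured by HTRF (665/620 ratio) after lysis. Compounds at 11 concentrations, 20 μM to 0.07 nM, duplicate; normalized to DMSO and no-agonist controls; IC50 by 4-parameter fit.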

T1 sequence (Q9NQS5 whole entry): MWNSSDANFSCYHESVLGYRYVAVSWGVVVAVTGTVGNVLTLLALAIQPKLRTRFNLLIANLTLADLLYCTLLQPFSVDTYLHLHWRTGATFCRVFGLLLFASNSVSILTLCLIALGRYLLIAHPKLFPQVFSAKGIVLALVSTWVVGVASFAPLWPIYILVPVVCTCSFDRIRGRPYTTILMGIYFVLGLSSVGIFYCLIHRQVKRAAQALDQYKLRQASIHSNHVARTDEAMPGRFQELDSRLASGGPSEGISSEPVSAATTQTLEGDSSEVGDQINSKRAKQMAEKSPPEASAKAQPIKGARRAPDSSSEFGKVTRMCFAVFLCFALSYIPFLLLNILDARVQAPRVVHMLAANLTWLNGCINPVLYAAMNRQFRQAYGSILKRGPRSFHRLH

IC50	SMILES
21 nM	O=C(NC[C@@H]1COCCO1)c1oc2c(c1C(F)(F)F)-c1nn(Cc3ccncc3)cc1C1(CCC1)C2 [Example 281, N-[(2R)-1,4-Dioxan-2-ylmethyl]-2′-(pyridin-4-ylmethyl)-8′-(trifluormethyl)-2′,5′-dihydrospiro[cyclobutan-1,4′-furo[2,3-g]indazol]-7′-carboxamide]
5 nM	Cc1cnc(CNC(=O)c2oc3c(c2C(F)(F)F)-c2nn(C[C@H]4COCCO4)cc2[C@H](C)C3)cn1 (single isomer, unassigned) [Example 258, (4R or 4S)-2-{[(2S)-1,4-dioxan-2-yl]methyl}-4-methyl-N-[(5-methylpyrazin-2-yl)methyl]-8-(trifluoromethyl)-4,5-dihydro-2H-furo[2,3-g]indazole-7-carboxamide]
92 nM	Cc1c(C(=O)NC[C@@H]2CCCO2)oc2c1-c1nn(Cc3cccc(C(F)(F)F)n3)cc1CC2 [Example 56, 8-methyl-N-[(2S)-tetrahydrofuran-2-ylmethyl]-2-{[6-(trifluoromethyl)pyridin-2-yl]methyl}-4,5-dihydro-2H-furo[2,3-g]indazole-7-carboxamide]
200 nM	Cc1c(C(=O)NC[C@@H]2COCCO2)oc2c1-c1nn(C[C@@H]3CCOC3)cc1CC2 [Example 114, N-[(2R)-1,4-dioxan-2-ylmethyl]-8-methyl-2-[(3S)-tetrahydrofuran-3-ylmethyl]-4,5-dihydro-2H-furo[2,3-g]indazole-7-carboxamide]
5 nM	Cc1ccc(Cn2cc3c(n2)-c2c(oc(C(=O)NC[C@@H]4CCCO4)c2C(F)(F)F)CC3C)cn1 (mixture of isomers) [Example 253, (4±)-4-methyl-2-[(6-methylpyridin-3-yl)methyl]-N-{[(2S)-oxolan-2-yl]methyl}-8-(trifluoromethyl)-4,5-dihydro-2H-furo[2,3-g]indazole-7-carboxamide]
39 nM	Cc1c(C(=O)NC[C@@H]2COCCO2)oc2c1-c1nn(C[C@H]3COCCO3)cc1C1(CC1)C2 [Example 126]
470 nM	Cc1c(C(=O)NC[C@@H]2COCCO2)oc2c1-c1nn(C[C@H]3CCO3)cc1CC2 [Example 98, N-[(2R)-1,4-dioxan-2-ylmethyl]-8-methyl-2-[(2R)-oxetan-2-ylmethyl]-4,5-dihydro-2H-furo[2,3-g]indazole-7-carboxamide]
130 nM	Cc1c(C(=O)NC[C@@H]2COCCO2)oc2c1-c1nn(CC3COC3)cc1CC2 [Example 92, N-[(2R)-1,4-dioxan-2-ylmethyl]-8-methyl-2-(oxetan-3-ylmethyl)-4,5-dihydro-2H-furo[2,3-g]indazole-7-carboxamide]
1620 nM	Cc1c(C(=O)NCCN2CCN(C)CC2)oc2c1-c1nn(Cc3ccccn3)cc1CC2 [Example 4, 8-methyl-N-[2-(4-methylpiperazin-1-yl)ethyl]-2-(pyridin-2-ylmethyl)-4,5-dihydro-2H-furo[2,3-g]indazole-7-carboxamide]
13 nM	Cc1c(C(=O)NC[C@@H]2CCCO2)oc2c1-c1nn(CC3(F)CN(C(=O)OCc4ccccc4)C3)cc1CC2 [Example 155, benzyl 3-fluoro-3-[(8-methyl-7-{[(2S)-tetrahydrofuran-2-ylmethyl]carbamoyl}-4,5-dihydro-2H-furo[2,3-g]indazol-2-yl)methyl]azetidine-1-carboxylate]
210 nM	Cc1c(C(=O)NC[C@@H]2CCCO2)oc2c1-c1nn(C[C@@H]3CCO3)cc1CC2 [Example 99, 8-methyl-2-[(2S)-oxetan-2-ylmethyl]-N-[(2S)-tetrahydrofuran-2-ylmethyl]-4,5-dihydro-2H-furo[2,3-g]indazole-7-carboxamide]
14 nM	C[C@@H]1Cc2oc(C(=O)NCc3ncco3)c(C(F)(F)F)c2-c2nn(C[C@H]3COCCO3)cc21 (single isomer, unassigned) [Example 256, (4R or 4S)-2-{[(2S)-1,4-dioxan-2-yl]methyl}-4-methyl-N-[(1,3-oxazol-2-yl)methyl]-8-(trifluoromethyl)-4,5-dihydro-2H-furo[2,3-g]indazole-7-carboxamide]
1290 nM	Cc1c(C(=O)NC[C@H]2COCCO2)oc2c1-c1nn(CC3CC3)cc1C1(CC1)C2 [Example 130, 2′-(cyclopropylmethyl)-N-[(2S)-1,4-dioxan-2-ylmethyl]-8′-methyl-2′,5′-dihydrospiro[cyclopropane-1,4′-furo[2,3-g]indazole]-7′-carboxamide]
77 nM	Cc1c(C(=O)NC[C@@H]2COCCO2)oc2c1-c1nn(C[C@H]3CCCO3)cc1CC2 [Example 106, N[(2R)-1,4-dioxan-2-ylmethyl]-8-methyl-2-[(2R)-tetrahydrofuran-2-ylmethyl]-4,5-dihydro-2H-furo[2,3-g]indazole-7-carboxamide]
40 nM	C[C@@H]1Cc2oc(C(=O)NCc3cn(C)cn3)c(C(F)(F)F)c2-c2nn(C[C@H]3COCCO3)cc21 (single isomer, unassigned) [Example 314, (4R or 4S)-2-{[(2S)-1,4-dioxan-2-yl]methyl}-4-methyl-N-[(1-methyl-1H-imidazol-4-yl)methyl]-8-(trifluoromethyl)-4,5-dihydro-2H-furo[2,3-g]indazole-7-carboxamide]
11200 nM	Cc1c(C(=O)NCc2cnoc2C2CC2)oc2c1-c1nn(Cc3ccccn3)cc1CC2 [Example 16, N-[(5-cyclopropyl-1,2-oxazol-4-yl)methyl]-8-methyl-2-(pyridin-2-ylmethyl)-4,5-dihydro-2H-furo[2,3-g]indazole-7-carboxamide]

IC50	SMILES
17 nM	Cc1ccc(Cn2cc3c(n2)-c2c(oc(C(=O)NC[C@@H]4CCCO4)c2C)CC32CC2)cn1 [Example 211]
95 nM	Cc1c(C(=O)NCC2CCCO2)oc2c1-c1nn(CC3COc4ncccc4O3)cc1CC2 (single isomer, unassigned) [Example 52-1]
151 nM	CN1CCC(Cn2cc3c(n2)-c2c(oc(C(=O)NC[C@@H]4CCCO4)c2C(F)(F)F)CC3)CC1 [Example 308, 2-[(1-methylpiperidin-4-yl)methyl]-N-{[(2S)-oxolan-2-yl]methyl}-8-(trifluoromethyl)-4,5-dihydro-2H-furo[2,3-g]indazole-7-carboxamide]
202 nM	CCN1CCC(Cn2cc3c(n2)-c2c(oc(C(=O)NC[C@@H]4CCCO4)c2C(F)(F)F)CC3)CC1 [Example 311, 2-[(1-ethylpiperidin-4-yl)methyl]-N-{[(2S)-oxolan-2-yl]methyl}-8-(trifluoromethyl)-4,5-dihydro-2H-furo[2,3-g]indazole-7-carboxamide]
35 nM	Cc1c(C(=O)NCc2cc(C3CC3)on2)oc2c1-c1nn(CC3COc4ncccc4O3)cc1CC2 (racemic) [Example 50, N-[(5-cyclopropyl-1,2-oxazol-3-yl)methyl]-2-[(2R/S)-2,3-dihydro[1,4]dioxino[2,3-b]pyridin-2-ylmethyl]-8-methyl-4,5-dihydro-2H-furo[2,3-g]indazole-7-carboxamide]
1190 nM	Cc1conc1CNC(=O)c1oc2c(c1C)-c1nn(Cc3ccccn3)cc1CC2 [Example 26, 8-methyl-N-[(4-methyl-1,2-oxazol-3-yl)methyl]-2-(pyridin-2-ylmethyl)-4,5-dihydro-2H-furo[2,3-g]indazole-7-carboxamide]
26 nM	[2H]C([2H])(c1ccccc1)n1cc2c(n1)-c1c(oc(C(=O)NC[C@@H]3CCCO3)c1C)CC2 [Example 135, 8-methyl-2-[phenyl(^2H2)methyl]-N-[(2S)-tetrahydrofuran-2-ylmethyl]-4,5-dihydro-2H-furo[2,3-g]indazole-7-carboxamide]
110 nM	Cc1c(C(=O)NC[C@@H]2COCCO2)oc2c1-c1nn(C[C@@H]3COCCO3)cc1CC2 [Example 88, N,2-bis[(2R)-1,4-dioxan-2-ylmethyl]-8-methyl-4,5-dihydro-2H-furo[2,3-g]indazole-7-carboxamide]
61 nM	O=C(NCc1ncco1)c1oc2c(c1C1CC1)-c1nn(Cc3ccccn3)cc1CC2 [Example 122, 8-cyclopropyl-N-(1,3-oxazol-2-ylmethyl)-2-(pyridin-2-ylmethyl)-4,5-dihydro-2H-furo[2,3-g]indazole-7-carboxamide]
300 nM	Cc1c(C(=O)NCc2ccccn2)oc2c1-c1nn(Cc3ccccn3)cc1CC2 [Example 21, 8-methyl-N,2-bis(pyridin-2-ylmethyl)-4,5-dihydro-2H-furo[2,3-g]indazole-7-carboxamide]
42 nM	Cc1c(C(=O)NC[C@@H]2CCCO2)oc2c1-c1nn(CC3COc4ncccc4O3)cc1CC2 (mixture of isomers) [Example 52, 2-[(2R/S)-2,3-dihydro[1,4]dioxino[2,3-b]pyridin-2-ylmethyl]-8-methyl-N-[(2S)-tetrahydrofuran-2-ylmethyl]-4,5-dihydro-2H-furo[2,3-g]indazole-7-carboxamide]
22 nM	Cc1ccc(Cn2cc3c(n2)-c2c(oc(C(=O)NC[C@@H]4CCCO4)c2C)CC32CCC2)nc1 [Example 203]
17 nM	Cc1c(C(=O)NC[C@@H]2CCCO2)oc2c1-c1nn(CC3(C)COC3)cc1CC2 [Example 93, 8-methyl-2-[(3-methyloxetan-3-yl)methyl]-N-[(2S)-tetrahydrofuran-2-ylmethyl]-4,5-dihydro-2H-furo[2,3-g]indazole-7-carboxamide]
77 nM	Cc1cccc(Cn2cc3c(n2)-c2c(oc(C(=O)NCC4COc5ncccc5O4)c2C)CC3)n1 (racemic) [Example 70, N-[(2R/S)-2,3-dihydro[1,4]dioxino[2,3-b]pyridin-2-ylmethyl]-8-methyl-2-[(6-methylpyridin-2-yl)methyl]-4,5-dihydro-2H-furo[2,3-g]indazole-7-carboxamide]
10 nM	Cc1c(C(=O)NC[C@@H]2CCCO2)oc2c1-c1nn(Cc3ccccn3)cc1C1(CC1)C2 [Example 149]
72 nM	Cc1c(C(=O)NC[C@@H]2CCCO2)oc2c1-c1nn(C[C@H]3CCCO3)cc1CC2 [Example 105, 8-methyl-2-{[(2R)-tetrahydrofuran-2-yl]methyl]-N-[(2S)-tetrahydrofuran-2-ylmethyl]-4,5-dihydro-2H-furo[2,3-g]indazole-7-carboxamide]
